This is an account of results in patent US9340803B2, “3-hydroxypropionic acid and other organic compounds” (Cargill, Incorporated, priority 2000, dated 2016).

The test system of experiment [1] is 3-hydroxypropionyl-CoA dehydratase (OS19). As to the kind of experiment: 3-hydroxypropionyl-CoA dehydratase specificity control reactions, MALDI-TOF MS. The conditions noted are these: 1 mM CoA ester, 80% D2O. The class given is biochemical, Chloroflexus aurantiacus. On the procedure:
Cell free extracts were prepared by growing cells as described above. The cells were harvested by centrifugation and disrupted by sonication. The sonicated cell suspension was centrifuged to remove cell debris, and the supernatant was used in the assays. The ability of the 3-hydroxypropionyl-CoA dehydratase to perform the following three reactions was measured using MALDI-TOF MS:
The assay mixture contained 50 mM Tris-HCl (pH 7.5), 1 mM CoA ester, and about 1 μg cell free extract. Reactions were allowed to proceed at room temperature and were stopped by adding 1 volume 10% trifluroacetic acid (TFA). The reaction mixtures were purified prior to MALDI-TOF MS analysis using Sep Pak Vac C18 50 mg columns (Waters, Inc.). The columns were conditioned with 1 mL methanol and then equilibrated with two washes of 1 mL 0.1% TFA. The sample was applied to the column, and the flow through was discarded. The column was washed twice with 1 mL 0.1% TFA. The sample was eluted in 200 μL 40% acetonitrile, 0.1% TFA. The acetonitrile was removed by centrifugation in vacuo. Samples were prepared for MALDI-TOF MS analysis by mixing 1:1 with 110 mM sinapinic acid in 0.1% TFA, 67% acetonitrile. The samples were allowed to air dry.
A series of control reactions were performed to confirm the specificity of the 3-hydroxypropionyl-CoA dehydratase. […]

Experiment [2] concerns CoA transferase (propionyl-CoA transferase or pct) from Megasphaera elsdenii. Briefly: CoA transferase activity assay (DTNB/citrate synthase coupled, OD 412 nm) with cell free extract. Type of experiment: biochemical. The conditions noted are these: 25 μM CoA-ester substrate, 200 mM sodium acetate, pH 7.0; cell free extract of E. coli expressing the CoA transferase. Here is the method:
The plasmid was transformed into Tuner (DE3) pLacI chemically competent cells (Novagen, Madison, Wis.), and expression from the construct tested. Briefly, a culture was grown overnight to saturation and diluted 1:20 the following morning in fresh LB medium with the appropriate antibiotics. The culture was grown at 37° C. with aeration to an OD600 of about 0.6. The culture was induced with IPTG at a final concentration of 100 μM. The culture was incubated for an additional two hours at 37° C. with aeration. Aliquots were taken pre-induction and 2 hours post-induction for SDS-PAGE analysis. A band of the expected molecular weight (55,653 Daltons predicted from the sequence) was observed after IPTG treatment. This band was not observed in cells containing a plasmid lacking the nucleic acid encoding the transferase.
Cell free extracts were prepared to assess enzymatic activity. Briefly, the cells were harvested by centrifugation and disrupted by sonication. The sonicated cell suspension was centrifuged to remove cell debris, and the supernatant was used in the assays.
Transferase activity was measured in the following assay. The assay mixture used contained 100 mM potassium phosphate buffer (pH 7.0), 200 mM sodium acetate, 1 mM dithiobisnitrobenzoate (DTNB), 500 μM oxaloacetate, 25 μM CoA-ester substrate, and 3 μg/mL citrate synthase. If present, the CoA transferase transfers the CoA from the CoA ester to acetate to form acetyl-CoA. The added citrate synthase condenses oxaloacetate and acetyl-CoA to form citrate and free CoASH. The free CoASH complexes with DTNB, and the formation of this complex can be measured by a change in the optical density at 412 nm. The activity of the CoA transferase was measured using the following substrates: lactyl-CoA, propionyl-CoA, acrylyl-CoA, and 3-hydroxypropionyl-CoA. The units/mg of protein was calculated using the following formula: (ΔE/min*Vf*dilution factor)/(VS*14.2)=units/mL where ΔE/min is the change in absorbance per minute at 412 nm, Vf is the final volume of the reaction, and VS is the volume of sample added. The total protein concentration of the cell free extract was about 1 mg/mL so the units/mL equals units/mg.

Experiment [3] is described as follows: OS17 polypeptide activity, disappearance of NAD(P)H at 340 nm. The class given is biochemical, Chloroflexus aurantiacus. The note with it: 3-HP 1 mM as substrate; protein extract of BL21-DE3/pET11a-OS17. On the procedure:
To assay OS17 polypeptide function, a 100 mL culture of BL21-DE3/pET11a-OS17 cells was started using 1 mL of overnight grown culture as an inoculum. The culture was grown to an OD of 0.5-0.6 and was induced with 100 μM IPTG. After two and a half hours of induction, the cells were harvested by spinning at 8000 rpm in the floor centrifuge. The cells were washed with 10 mM Tris-HCl (pH 7.8) and passed twice through a French Press at a gauge pressure of 1000 psi. The cell debris was removed by centrifugation at 15,000 rpm. The activity of the OS17 polypeptide was measured spectrophotometrically, and the products formed during this enzymatic transformation were detected by LC/MS. The assay mix was as follows (J. Bacteriol., 181:1088-1098 (1999)):
The initial rate of reaction was measured by monitoring the disappearance of NAD(P)H at 340 nm. The activity of the OS17 polypeptide was measured using 3-HP as the substrate. The units/mL of total protein was calculated using the formula set forth in Example 1. The activity of the expressed OS17 polypeptide was calculated to be 0.061 U/mL of total protein. The reaction products were purified using a Sep Pak Vac column (Waters). The column was conditioned with 1 mL methanol and washed two times with 0.5 mL 0.1% TFA. […] The reaction products were analyzed by LC/MS.

With `CC(O)C(=O)SCCNC(=O)CCNC(=O)[C@H](O)C(C)(C)COP(=O)(O)OP(=O)(O)OC[C@H]1O[C@@H](n2cnc3c(N)ncnc32)[C@H](O)[C@@H]1OP(=O)(O)O` (stereo partly shown) [Lactyl-CoA], the “activity of 3-hydroxypropionyl-CoA dehydratase enzyme on CoA ester” value in experiment [1] is on record as “not active”. For the same molecule, the “CoA transferase activity, Units/mg” value in experiment [2] was 211 Units/mg. With `CCC(=O)SCCNC(=O)CCNC(=O)[C@H](O)C(C)(C)COP(=O)(O)OP(=O)(O)OC[C@H]1O[C@@H](n2cnc3c(N)ncnc32)[C@H](O)[C@@H]1OP(=O)(O)O` [Propionyl-CoA], in experiment [2], the “CoA transferase activity, Units/mg” value is recorded as 144 Units/mg. Consider `CC(C)(COP(=O)(O)OP(=O)(O)OC[C@H]1O[C@@H](n2cnc3c(N)ncnc32)[C@H](O)[C@@H]1OP(=O)(O)O)[C@@H](O)C(=O)NCCC(=O)NCCSC(=O)CCO` [3-Hydroxypropionyl-CoA], for which, in experiment [1], the “activity of 3-hydroxypropionyl-CoA dehydratase enzyme on CoA ester” value is on record as “active”. For the same molecule, the “CoA transferase activity, Units/mg” value in experiment [2] was determined as 110 Units/mg. For the molecule “OS17 polypeptide: C. aurantiacus polypeptide having CoA synthase, dehydratase, and dehydrogenase activity (propionyl-CoA synthetase)”, in experiment [3], the “activity of the expressed OS17 polypeptide” value is recorded as 0.061 U/mL of total protein. Regarding `C=CC(=O)SCCNC(=O)CCNC(=O)[C@H](O)C(C)(C)COP(=O)(O)OP(=O)(O)OC[C@H]1O[C@@H](n2cnc3c(N)ncnc32)[C@H](O)[C@@H]1OP(=O)(O)O` [Acrylyl-CoA], the “CoA transferase activity, Units/mg” value in experiment [2] is on record as 118 Units/mg.
